The target of data set [1] is T1, full-length Nurr1 monomer (NBRE) (Homo sapiens, UniProt P43354).
T1 construct: full-length human nuclear receptor Nurr1 encoded by pcDNA3.1 -hNurr1-NE; host or cells: HEK293T
The data set can be described thus: Full-length Nurr1 reporter gene assay, monomer response element NBRE. Type of data set: cell-based. The procedure:
Based on these findings, we next determined the effects of 2 and 3 on Nurr1 activity in a cellular setting using reporter constructs for the NGFI-B response element (NBRE), the Nur response element (NurRE), and the direct repeat 5 (DR5)[36]. All three response elements are robustly activated by common Nurr1 agonists[4],[31]. […]
modified Eagle’s medium (DMEM), high glucose supplemented with 10% fetal calf serum (FCS), sodium pyruvate (1 mM), penicillin (100 U/mL), and streptomycin (100 μg/mL) at 37 °C and 5% CO2 and seeded in 96-well plates (3×10^4 cells/well). […] Five hours after transfection, the cells were incubated with the test compounds in Opti-MEM supplemented with penicillin (100 U/mL), streptomycin (100 μg/mL), and 0.1% DMSO for 15 h before luciferase activity was measured using the Dual -Glo Luciferase Assay System (Promega) according to the manufacturer’s protocol on a Tecan Spark l uminometer (Tecan Deutschland GmbH, Germany). Firefly luminescence was divided by Renilla luminescence and multiplied by 1000, resulting in relative light units (RLU) to normalize for transfection efficiency and cell growth. […]
Reporter gene assays for full-length human Nurr1 and RXR. […] Firefly luminescence was divided by Renilla luminescence and multiplied by 1000, resulting in relative light units (RLU) to normalize for transfection efficiency and cell growth. […]
A general note: A reporter such as luciferase makes a cellular process visible.

Another data set can be described thus: Chemical stability. Type of data set: physicochemical. Particulars: compared to 2.

The text below walks through data of paper PMC7618597, “Dual Nurr1/RXR agonism of valerenic acid and synthetic mimetics enables dimer-selective Nurr1 modulation” (ACS medicinal chemistry letters, 2025).

T1 sequence (P43354 whole entry): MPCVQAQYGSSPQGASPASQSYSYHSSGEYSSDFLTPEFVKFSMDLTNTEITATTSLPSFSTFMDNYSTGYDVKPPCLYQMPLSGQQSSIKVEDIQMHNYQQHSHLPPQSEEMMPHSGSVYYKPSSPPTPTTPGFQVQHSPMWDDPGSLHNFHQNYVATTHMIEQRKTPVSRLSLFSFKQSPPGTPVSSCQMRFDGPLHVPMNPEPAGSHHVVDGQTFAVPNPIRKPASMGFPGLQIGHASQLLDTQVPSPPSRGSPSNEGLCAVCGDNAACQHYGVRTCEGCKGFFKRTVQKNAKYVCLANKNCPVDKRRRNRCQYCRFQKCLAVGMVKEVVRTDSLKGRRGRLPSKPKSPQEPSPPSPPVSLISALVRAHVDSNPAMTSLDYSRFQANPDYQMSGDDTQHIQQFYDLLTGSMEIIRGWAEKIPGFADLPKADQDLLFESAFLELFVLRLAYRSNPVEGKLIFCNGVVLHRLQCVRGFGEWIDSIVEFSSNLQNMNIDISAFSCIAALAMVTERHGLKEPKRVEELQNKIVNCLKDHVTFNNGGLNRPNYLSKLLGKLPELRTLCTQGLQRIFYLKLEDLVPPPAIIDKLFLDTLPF

For `Cc1c(C)n(-c2ccc(CC(=O)O)cc2)c2ccc(F)cc12` [compound 3], the “activation on NBRE” value in data set [1] was “no activation was detectable”. In the data set “Chemical stability”, the chemical stability entry is listed as “improved chemical stability”.

With `Cc1c2c(n(-c3ccc(CC(=O)O)cc3)c1C)CCC(F)(F)C2` [compound 2], the “activation on NBRE” value in data set [1] is “no activation was detectable”.
